Experimental data published in article PMC4286194 (Biochemical Journal, 2015).

Columns and labels:
GCK = molecular target: T1, GCK (Homo sapiens, UniProt Q12851); assay: Kinase profiling; format: biochemical
T1 sequence (Q12851 1-820): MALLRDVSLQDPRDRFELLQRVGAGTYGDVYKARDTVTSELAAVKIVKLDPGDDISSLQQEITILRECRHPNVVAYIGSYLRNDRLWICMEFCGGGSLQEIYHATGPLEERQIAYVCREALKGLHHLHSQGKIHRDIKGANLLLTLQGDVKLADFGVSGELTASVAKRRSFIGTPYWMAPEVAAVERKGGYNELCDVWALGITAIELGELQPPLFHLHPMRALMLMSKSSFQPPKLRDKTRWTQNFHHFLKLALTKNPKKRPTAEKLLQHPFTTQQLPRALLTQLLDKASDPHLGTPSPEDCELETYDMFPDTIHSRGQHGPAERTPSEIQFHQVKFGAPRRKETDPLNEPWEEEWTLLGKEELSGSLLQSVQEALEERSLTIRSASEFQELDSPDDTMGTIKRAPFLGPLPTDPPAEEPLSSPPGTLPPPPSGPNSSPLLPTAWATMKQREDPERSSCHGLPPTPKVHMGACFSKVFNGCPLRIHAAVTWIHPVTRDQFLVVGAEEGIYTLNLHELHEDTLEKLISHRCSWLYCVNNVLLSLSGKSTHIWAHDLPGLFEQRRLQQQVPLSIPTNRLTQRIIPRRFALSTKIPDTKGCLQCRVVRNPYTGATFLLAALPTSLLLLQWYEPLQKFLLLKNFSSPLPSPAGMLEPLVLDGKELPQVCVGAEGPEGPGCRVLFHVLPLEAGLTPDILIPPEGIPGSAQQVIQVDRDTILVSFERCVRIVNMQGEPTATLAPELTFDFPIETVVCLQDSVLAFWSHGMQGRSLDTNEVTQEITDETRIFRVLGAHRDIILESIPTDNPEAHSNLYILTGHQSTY

ZAP70 = molecular target: T2, ZAP70 (Homo sapiens, UniProt P43403); assay: Kinase profiling; format: biochemical
T2 sequence (P43403 1-619): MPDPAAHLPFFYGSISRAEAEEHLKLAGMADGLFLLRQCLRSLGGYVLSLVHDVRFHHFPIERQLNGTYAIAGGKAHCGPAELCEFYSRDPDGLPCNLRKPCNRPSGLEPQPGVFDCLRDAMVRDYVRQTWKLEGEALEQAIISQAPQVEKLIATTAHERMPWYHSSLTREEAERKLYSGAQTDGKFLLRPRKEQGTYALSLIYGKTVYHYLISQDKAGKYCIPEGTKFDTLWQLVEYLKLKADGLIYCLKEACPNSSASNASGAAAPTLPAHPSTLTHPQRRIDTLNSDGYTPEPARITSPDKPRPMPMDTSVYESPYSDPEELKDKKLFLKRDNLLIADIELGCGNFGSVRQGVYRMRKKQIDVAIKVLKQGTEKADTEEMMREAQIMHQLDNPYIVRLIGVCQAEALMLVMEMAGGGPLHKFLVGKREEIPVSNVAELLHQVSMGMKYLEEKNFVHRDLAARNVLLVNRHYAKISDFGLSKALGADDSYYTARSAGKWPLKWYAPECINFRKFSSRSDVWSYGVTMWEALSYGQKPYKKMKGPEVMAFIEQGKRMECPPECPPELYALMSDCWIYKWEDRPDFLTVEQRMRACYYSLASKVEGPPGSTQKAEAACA

PDK1 = molecular target: T3, PDK1 (Homo sapiens, UniProt O15530); assay: Kinase profiling; format: biochemical
T3 sequence (O15530 1-556): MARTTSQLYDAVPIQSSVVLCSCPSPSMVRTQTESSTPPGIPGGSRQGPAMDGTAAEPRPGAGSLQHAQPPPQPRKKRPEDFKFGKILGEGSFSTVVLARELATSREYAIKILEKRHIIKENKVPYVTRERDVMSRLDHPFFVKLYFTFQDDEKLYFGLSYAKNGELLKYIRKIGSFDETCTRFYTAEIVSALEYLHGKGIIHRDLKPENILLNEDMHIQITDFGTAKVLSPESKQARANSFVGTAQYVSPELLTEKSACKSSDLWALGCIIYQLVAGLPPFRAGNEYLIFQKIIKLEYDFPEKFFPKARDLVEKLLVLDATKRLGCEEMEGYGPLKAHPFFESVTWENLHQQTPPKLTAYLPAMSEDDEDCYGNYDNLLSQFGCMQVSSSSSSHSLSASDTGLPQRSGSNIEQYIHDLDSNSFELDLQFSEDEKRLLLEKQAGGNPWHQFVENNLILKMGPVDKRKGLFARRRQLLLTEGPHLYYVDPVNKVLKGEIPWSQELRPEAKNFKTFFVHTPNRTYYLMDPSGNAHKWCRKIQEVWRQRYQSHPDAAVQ

DDR2 = molecular target: T4, DDR2 (Homo sapiens, UniProt Q16832); assay: Kinase profiling; format: biochemical
T4 sequence (Q16832 22-855): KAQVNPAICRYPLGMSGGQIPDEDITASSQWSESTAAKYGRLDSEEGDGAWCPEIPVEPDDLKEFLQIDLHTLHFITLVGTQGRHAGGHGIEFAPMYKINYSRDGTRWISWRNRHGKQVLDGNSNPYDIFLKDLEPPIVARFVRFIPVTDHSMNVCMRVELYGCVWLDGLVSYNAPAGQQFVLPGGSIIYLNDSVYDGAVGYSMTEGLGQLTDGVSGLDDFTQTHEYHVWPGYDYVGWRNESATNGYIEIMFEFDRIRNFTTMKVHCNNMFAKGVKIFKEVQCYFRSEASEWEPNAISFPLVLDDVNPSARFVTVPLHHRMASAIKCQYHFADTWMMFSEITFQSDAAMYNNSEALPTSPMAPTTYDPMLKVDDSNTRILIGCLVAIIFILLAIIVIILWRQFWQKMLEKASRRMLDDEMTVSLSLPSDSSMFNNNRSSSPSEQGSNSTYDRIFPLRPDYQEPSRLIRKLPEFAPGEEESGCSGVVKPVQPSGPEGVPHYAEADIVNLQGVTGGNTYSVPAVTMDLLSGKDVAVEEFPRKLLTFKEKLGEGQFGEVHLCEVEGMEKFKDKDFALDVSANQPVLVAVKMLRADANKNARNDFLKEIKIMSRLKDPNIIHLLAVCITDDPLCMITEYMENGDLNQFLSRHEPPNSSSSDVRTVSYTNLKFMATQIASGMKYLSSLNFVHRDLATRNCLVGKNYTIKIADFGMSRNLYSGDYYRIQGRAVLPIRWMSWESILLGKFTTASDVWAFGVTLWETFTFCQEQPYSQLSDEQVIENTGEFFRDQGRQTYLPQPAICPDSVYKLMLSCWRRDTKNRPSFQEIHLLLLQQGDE

[1] = test system: Bone-marrow-derived macrophages; assay: Pro-inflammatory cytokine secretion (BIOPLEX); format: cell-based, mouse; conditions: 3 μM bosutinib or 0.3 μM dasatinib 1 h, LPS 8 h
Experimental: The concentration of TNFα, IL-6, IL-10 and IL-12p40 in cell-free culture supernatants were measured using the Bio-Plex Pro Assay system (Bio-Rad).

COc1cc(Nc2c(C#N)cnc3cc(OCCCN4CCN(C)CC4)c(OC)cc23)c(Cl)cc1Cl [Bosutinib, bosutinib]
remaining activity at 0.1 µM (GCK): 9 ± 2%
remaining activity at 1 µM (GCK): 4%
remaining activity at 0.1 µM (ZAP70): 99 ± 4%
remaining activity at 1 µM (ZAP70): 109 ± 18%
remaining activity at 0.1 µM (PDK1): 92 ± 16%
remaining activity at 1 µM (PDK1): 98%
remaining activity at 0.1 µM (DDR2): 22 ± 1%
remaining activity at 1 µM (DDR2): 2%
Production of IL-6, IL-12p40 and TNFα [1]: inhibited

Cc1nc(Nc2ncc(C(=O)Nc3c(C)cccc3Cl)s2)cc(N2CCN(CCO)CC2)n1 [Dasatinib]
remaining activity at 0.1 µM (GCK): 95 ± 7%
remaining activity at 1 µM (GCK): 56 ± 8%
remaining activity at 0.1 µM (ZAP70): 109 ± 1%
remaining activity at 1 µM (ZAP70): 121 ± 27%
remaining activity at 0.1 µM (PDK1): 94 ± 9%
remaining activity at 1 µM (PDK1): 92 ± 1%
remaining activity at 0.1 µM (DDR2): 1 ± 1%
remaining activity at 1 µM (DDR2): 0%
Production of IL-6, IL-12p40 and TNFα [1]: inhibited
